Measured values from ChEMBL document CHEMBL1212765, “An A643T mutation in the transcription factor Upc2p causes constitutive ERG11 upregulation and increased fluconazole resistance in Candida albicans” (2010).
Converted amounts (≈) assume the structure as drawn. The source made the active and inactive calls. No cut-off for these calls is given here.

Assays:
[1] = test system: Candida albicans; assay: Antimicrobial activity against fluconazole susceptible Candida albicans isolate 945 expressing low levels of ERG11 and UPC2 mRNA by microdilution method; type: functional
[2] = test system: Candida albicans; assay: Antimicrobial activity against Candida albicans isolate SC5314 expressing UPC2/UPC2 A643T mutant allele by microdilution method relative wild type; type: functional, organism-based
[3] = test system: Candida albicans; assay: Antimicrobial activity against fluconazole susceptible Candida albicans 5054 expressing low levels of ERG11 and UPC2 mRNA by microdilution method; type: functional
[4] = test system: Candida albicans; assay: Antimicrobial activity against Candida albicans isolate SC5314 expressing UPC2 G648D/UPC2 G648D double mutant alleles by microdilution method relative wild type; type: functional
[5] = test system: Candida albicans; assay: Antimicrobial activity against Candida albicans isolate SC5314 expressing UPC2/UPC2 G648D mutant allele by microdilution method relative wild type; type: functional
[6] = test system: Candida albicans; assay: Antimicrobial activity against Candida albicans isolate SC5314 expressing UPC2 G648D/UPC2 A643T double mutant alleles by microdilution method relative wild type; type: functional, organism-based
[7] = test system: Candida albicans; assay: Antimicrobial activity against fluconazole resistant Candida albicans isolate 1619 expressing high levels of ERG11 and UPC2 mRNA by microdilution method; type: functional
[8] = test system: Candida albicans; assay: Antimicrobial activity against fluconazole resistant Candida albicans isolate 2440 expressing high levels of ERG11 and UPC2 mRNA by microdilution method; type: functional
[9] = test system: Candida albicans; assay: Antimicrobial activity against fluconazole resistant Candida albicans isolate 3795 expressing high levels of ERG11 and UPC2 mRNA by microdilution method; type: functional
[10] = test system: Candida albicans; assay: Antimicrobial activity against fluconazole susceptible Candida albicans isolate 5052 expressing low levels of ERG11 and UPC2 mRNA by microdilution method; type: functional
[11] = test system: Candida albicans; assay: Antimicrobial activity against fluconazole susceptible Candida albicans isolate 580 expressing low levels of ERG11 and UPC2 mRNA by microdilution method; type: functional
[12] = test system: Candida albicans; assay: Antimicrobial activity against fluconazole susceptible Candida albicans isolate 1002 expressing low levels of ERG11 and UPC2 mRNA by microdilution method; type: functional

## OC(Cn1cncn1)(Cn1cncn1)c1ccc(F)cc1F [FLUCONAZOLE]
[1]
  MIC: 4 µg/mL (≈ 13.1 µM)
[2]
  MIC: inactive
[3]
  MIC: 4 µg/mL (≈ 13.1 µM)
[4]
  Ratio: 8
[5]
  Ratio: 4
[6]
  MIC: inactive
[7]
  MIC: 32 µg/mL (≈ 104 µM)
[8]
  MIC: 32 µg/mL (≈ 104 µM)
[9]
  MIC: > 64 µg/mL
[10]
  MIC: 32 µg/mL (≈ 104 µM)
[11]
  MIC: 1 µg/mL (≈ 3.27 µM)
[12]
  MIC: 0.25 µg/mL (≈ 0.816 µM)
